# Assays:
# [1] = molecular target: Voltage-gated inwardly rectifying potassium channel KCNH2 (Homo sapiens, UniProt Q12809); test: Inhibition of hERG; format: toxicity
# [2] = system: Salmonella typhimurium; test: Mutagenecity in Salmonella typhimurium TA97a at 0.5 to 312.5 ug/ml incubated for 42 to 72 hrs in presence of S9 fraction by Ames test; format: toxicity, organism-based; conditions: salmonella enterica subsp. enterica serovar typhimurium, dose lower 0.5 µg/ml, time lower 42 hrs, dose upper 312.5 µg/ml, time upper 72 hrs
# [3] = system: Salmonella typhimurium; test: Mutagenecity in Salmonella typhimurium TA98 at 0.5 to 312.5 ug/ml incubated for 42 to 72 hrs in presence of S9 fraction by Ames test; format: toxicity, organism-based; conditions: salmonella enterica subsp. enterica serovar typhimurium, dose lower 0.5 µg/ml, time lower 42 hrs, dose upper 312.5 µg/ml, time upper 72 hrs
# [4] = system: Salmonella typhimurium; test: Mutagenecity in Salmonella typhimurium TA102 at 0.5 to 312.5 ug/ml incubated for 42 to 72 hrs in presence of S9 fraction by Ames test; format: toxicity, organism-based; conditions: salmonella enterica subsp. enterica serovar typhimurium, dose lower 0.5 µg/ml, time lower 42 hrs, dose upper 312.5 µg/ml, time upper 72 hrs
# [5] = system: Salmonella typhimurium; test: Mutagenecity in Salmonella typhimurium TA100 at 0.5 to 312.5 ug/ml incubated for 42 to 72 hrs in presence of S9 fraction by Ames test; format: toxicity, organism-based; conditions: salmonella enterica subsp. enterica serovar typhimurium, dose lower 0.5 µg/ml, time lower 42 hrs, dose upper 312.5 µg/ml, time upper 72 hrs
# [6] = Genotoxicity in ICR mouse bone marrow at 25 to 100 mg/kg administered via oral gavage and measured after 24 to 48 hrs by micronucleus assay; format: toxicity, organism-based; conditions: in vivo, dose lower 25 mg/kg, time lower 24 hrs, dose upper 100 mg/kg, time upper 48 hrs
# [7] = Toxicity in ICR mouse assessed as maximum tolerated dose administered as single oral dose for 14 days; conditions: in vivo, time 14 day
# [8] = Tmax in ICR mouse at 15 mg/kg, po measured upto 24 hrs by LC/MS/MS analysis; format: ADME, organism-based; conditions: in vivo
# [9] = Tmax in ICR mouse at 5 mg/kg, iv measured upto 24 hrs by LC/MS/MS analysis; format: ADME, organism-based; conditions: in vivo
# [10] = Cmax in ICR mouse at 15 mg/kg, po measured upto 24 hrs by LC/MS/MS analysis; format: ADME, organism-based; parameters: route oral, dose 15 mg/kg, time <=24; conditions: in vivo
# [11] = Cmax in ICR mouse at 5 mg/kg, iv measured upto 24 hrs by LC/MS/MS analysis; format: ADME, organism-based; parameters: route intravenous, dose 5 mg/kg, time <=24; conditions: in vivo
# [12] = AUC (0 to t) in ICR mouse at 15 mg/kg, po measured upto 24 hrs by LC/MS/MS analysis; format: ADME, organism-based; parameters: route oral, dose 15 mg/kg, time <=24; conditions: in vivo
# [13] = AUC (0 to t) in ICR mouse at 5 mg/kg, iv measured upto 24 hrs by LC/MS/MS analysis; format: ADME, organism-based; parameters: route intravenous, dose 5 mg/kg, time <=24; conditions: in vivo
# [14] = AUC (0 to infinity) in ICR mouse at 15 mg/kg, po measured upto 24 hrs by LC/MS/MS analysis; format: ADME, organism-based; parameters: route oral, dose 15 mg/kg, time <=24; conditions: in vivo
# [15] = AUC (0 to infinity) in ICR mouse at 5 mg/kg, iv measured upto 24 hrs by LC/MS/MS analysis; format: ADME, organism-based; parameters: route intravenous, dose 5 mg/kg, time <=24; conditions: in vivo
# [16] = MRT in ICR mouse at 15 mg/kg, po measured upto 24 hrs by LC/MS/MS analysis; format: ADME, organism-based; conditions: in vivo
# [17] = MRT in ICR mouse at 5 mg/kg, iv measured upto 24 hrs by LC/MS/MS analysis; format: ADME, organism-based; conditions: in vivo
# [18] = Half life in ICR mouse at 15 mg/kg, po measured upto 24 hrs by LC/MS/MS analysis; format: ADME, organism-based; conditions: in vivo
# [19] = Half life in ICR mouse at 5 mg/kg, iv measured upto 24 hrs by LC/MS/MS analysis; format: ADME, organism-based; conditions: in vivo
# [20] = Clearance in ICR mouse at 5 mg/kg, iv measured upto 24 hrs by LC/MS/MS analysis; format: ADME, organism-based; conditions: in vivo
# [21] = Volume of distribution at steady state in ICR mouse at 5 mg/kg, iv measured upto 24 hrs by LC/MS/MS analysis; format: ADME, organism-based; conditions: in vivo, read-out: Vdss
# [22] = Oral bioavailability in ICR mouse at 15 mg/kg measured upto 24 hrs by LC/MS/MS analysis; format: ADME, organism-based; conditions: in vivo
# [23] = molecular target: Proto-oncogene tyrosine-protein kinase Src (Homo sapiens, UniProt P12931); test: Inhibition of human c-SRC using poly [Glu:Tyr] as substrate incubated for 30 mins followed by 33P-ATP addition and measured after 2 hrs by liquid scintillation counter method
# [24] = molecular target: T1, Receptor-type tyrosine-protein kinase FLT3 (Homo sapiens, UniProt P36888); test: Inhibition of human FLT3 using EAIYAAPFAKKK as substrate incubated for 30 mins followed by 33P-ATP addition and measured after 2 hrs by liquid scintillation counter method
# T1 sequence (P36888 whole entry): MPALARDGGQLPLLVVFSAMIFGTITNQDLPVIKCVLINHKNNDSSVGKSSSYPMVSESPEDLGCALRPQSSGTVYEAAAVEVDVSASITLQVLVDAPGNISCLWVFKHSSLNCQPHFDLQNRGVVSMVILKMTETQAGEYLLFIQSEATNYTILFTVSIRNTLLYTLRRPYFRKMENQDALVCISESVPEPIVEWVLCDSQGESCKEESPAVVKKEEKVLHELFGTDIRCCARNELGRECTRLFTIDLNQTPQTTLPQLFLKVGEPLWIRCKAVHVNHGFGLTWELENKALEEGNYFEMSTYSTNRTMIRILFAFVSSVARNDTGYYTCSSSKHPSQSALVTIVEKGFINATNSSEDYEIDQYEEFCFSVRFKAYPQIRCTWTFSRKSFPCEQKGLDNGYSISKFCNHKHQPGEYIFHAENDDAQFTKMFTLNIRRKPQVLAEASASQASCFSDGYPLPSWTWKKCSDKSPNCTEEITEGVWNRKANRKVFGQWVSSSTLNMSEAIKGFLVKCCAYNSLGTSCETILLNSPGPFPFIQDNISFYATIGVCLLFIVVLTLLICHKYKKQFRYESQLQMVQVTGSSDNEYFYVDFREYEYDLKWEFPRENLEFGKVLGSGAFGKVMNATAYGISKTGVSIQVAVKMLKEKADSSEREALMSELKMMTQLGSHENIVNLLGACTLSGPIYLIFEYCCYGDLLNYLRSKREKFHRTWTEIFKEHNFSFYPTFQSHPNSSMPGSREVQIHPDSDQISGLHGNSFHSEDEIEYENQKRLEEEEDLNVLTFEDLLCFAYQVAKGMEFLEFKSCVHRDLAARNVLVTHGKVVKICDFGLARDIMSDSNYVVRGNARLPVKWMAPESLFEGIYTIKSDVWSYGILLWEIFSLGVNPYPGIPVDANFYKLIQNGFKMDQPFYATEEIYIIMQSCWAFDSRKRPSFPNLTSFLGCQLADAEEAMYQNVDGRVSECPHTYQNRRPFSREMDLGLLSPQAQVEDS
# [25] = molecular target: Vascular endothelial growth factor receptor 2 (Homo sapiens, UniProt P35968); test: Inhibition of human KDR/VEGFR2 using poly [Glu:Tyr] as substrate incubated for 30 mins followed by 33P-ATP addition and measured after 2 hrs by liquid scintillation counter method
# [26] = molecular target: Tyrosine-protein kinase Lyn (Homo sapiens, UniProt P07948); test: Inhibition of human LYN using poly [Glu:Tyr] as substrate incubated for 30 mins followed by 33P-ATP addition and measured after 2 hrs by liquid scintillation counter method
# [27] = molecular target: Platelet-derived growth factor receptor alpha (Homo sapiens, UniProt P16234); test: Inhibition of human PDGFRa using poly [Glu:Tyr] as substrate incubated for 30 mins followed by 33P-ATP addition and measured after 2 hrs by liquid scintillation counter method
# [28] = system: Salmonella typhimurium; test: Mutagenecity in Salmonella typhimurium TA1535 at 0.5 to 312.5 ug/ml incubated for 42 to 72 hrs in presence of S9 fraction by Ames test; format: toxicity, organism-based; conditions: salmonella enterica subsp. enterica serovar typhimurium, dose lower 0.5 µg/ml, time lower 42 hrs, dose upper 312.5 µg/ml, time upper 72 hrs
# Sequence of Voltage-gated inwardly rectifying potassium channel KCNH2 (Q12809 whole entry): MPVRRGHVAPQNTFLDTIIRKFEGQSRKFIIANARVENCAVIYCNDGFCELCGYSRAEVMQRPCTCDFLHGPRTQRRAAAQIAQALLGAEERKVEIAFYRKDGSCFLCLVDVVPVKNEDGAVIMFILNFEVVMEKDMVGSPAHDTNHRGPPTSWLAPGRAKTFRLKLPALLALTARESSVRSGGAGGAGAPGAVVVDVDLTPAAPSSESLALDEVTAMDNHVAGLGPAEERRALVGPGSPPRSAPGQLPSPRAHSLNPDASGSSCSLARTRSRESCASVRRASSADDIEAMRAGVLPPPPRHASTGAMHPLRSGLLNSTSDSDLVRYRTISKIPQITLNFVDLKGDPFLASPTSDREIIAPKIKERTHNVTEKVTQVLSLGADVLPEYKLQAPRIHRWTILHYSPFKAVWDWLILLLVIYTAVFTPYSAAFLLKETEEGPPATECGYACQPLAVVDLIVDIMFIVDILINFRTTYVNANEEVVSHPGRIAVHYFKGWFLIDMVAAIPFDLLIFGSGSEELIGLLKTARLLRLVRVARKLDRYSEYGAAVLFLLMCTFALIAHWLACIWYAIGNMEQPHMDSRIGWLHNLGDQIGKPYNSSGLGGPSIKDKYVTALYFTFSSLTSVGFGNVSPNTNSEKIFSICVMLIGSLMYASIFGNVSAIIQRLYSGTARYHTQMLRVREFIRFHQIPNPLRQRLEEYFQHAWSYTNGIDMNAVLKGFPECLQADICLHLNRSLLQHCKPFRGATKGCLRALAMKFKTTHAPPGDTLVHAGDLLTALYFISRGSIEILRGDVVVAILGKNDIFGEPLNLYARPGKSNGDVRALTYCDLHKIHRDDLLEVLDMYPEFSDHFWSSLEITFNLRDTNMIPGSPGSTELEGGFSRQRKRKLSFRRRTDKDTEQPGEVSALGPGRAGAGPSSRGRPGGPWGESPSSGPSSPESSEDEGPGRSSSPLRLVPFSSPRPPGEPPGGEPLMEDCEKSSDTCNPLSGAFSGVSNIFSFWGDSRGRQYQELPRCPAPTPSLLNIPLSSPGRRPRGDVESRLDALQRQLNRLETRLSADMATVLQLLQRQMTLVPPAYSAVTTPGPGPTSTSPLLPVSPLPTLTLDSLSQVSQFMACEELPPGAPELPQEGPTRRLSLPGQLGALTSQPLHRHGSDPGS
# Sequence of Platelet-derived growth factor receptor alpha (P16234 whole entry): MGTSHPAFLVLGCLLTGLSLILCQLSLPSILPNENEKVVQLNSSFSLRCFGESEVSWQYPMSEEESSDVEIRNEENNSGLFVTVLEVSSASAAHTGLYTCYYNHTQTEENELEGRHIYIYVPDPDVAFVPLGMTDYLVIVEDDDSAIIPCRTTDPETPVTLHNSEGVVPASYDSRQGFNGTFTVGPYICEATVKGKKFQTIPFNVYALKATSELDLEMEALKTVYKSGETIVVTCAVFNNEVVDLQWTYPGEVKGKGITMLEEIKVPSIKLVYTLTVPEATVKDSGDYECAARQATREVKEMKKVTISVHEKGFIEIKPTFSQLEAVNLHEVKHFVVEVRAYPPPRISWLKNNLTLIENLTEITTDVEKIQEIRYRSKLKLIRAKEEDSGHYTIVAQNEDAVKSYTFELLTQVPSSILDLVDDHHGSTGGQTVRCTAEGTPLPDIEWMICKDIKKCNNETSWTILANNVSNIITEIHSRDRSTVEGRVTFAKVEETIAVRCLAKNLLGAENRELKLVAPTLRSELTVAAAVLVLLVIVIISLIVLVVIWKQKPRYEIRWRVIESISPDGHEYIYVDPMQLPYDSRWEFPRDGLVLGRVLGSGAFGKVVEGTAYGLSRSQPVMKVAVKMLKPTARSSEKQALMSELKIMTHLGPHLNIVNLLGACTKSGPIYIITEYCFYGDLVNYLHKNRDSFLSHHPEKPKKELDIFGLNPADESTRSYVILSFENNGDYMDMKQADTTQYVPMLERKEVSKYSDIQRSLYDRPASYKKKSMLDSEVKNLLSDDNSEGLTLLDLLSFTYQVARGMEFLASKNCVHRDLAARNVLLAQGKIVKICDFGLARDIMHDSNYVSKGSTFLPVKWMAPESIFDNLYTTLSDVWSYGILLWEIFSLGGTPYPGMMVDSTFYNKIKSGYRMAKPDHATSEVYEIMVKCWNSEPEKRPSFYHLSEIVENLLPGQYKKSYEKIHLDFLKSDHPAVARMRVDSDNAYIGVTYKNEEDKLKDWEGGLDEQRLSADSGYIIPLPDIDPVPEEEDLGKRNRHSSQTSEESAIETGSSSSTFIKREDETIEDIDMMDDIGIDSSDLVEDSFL
# Sequence of Tyrosine-protein kinase Lyn (P07948 whole entry): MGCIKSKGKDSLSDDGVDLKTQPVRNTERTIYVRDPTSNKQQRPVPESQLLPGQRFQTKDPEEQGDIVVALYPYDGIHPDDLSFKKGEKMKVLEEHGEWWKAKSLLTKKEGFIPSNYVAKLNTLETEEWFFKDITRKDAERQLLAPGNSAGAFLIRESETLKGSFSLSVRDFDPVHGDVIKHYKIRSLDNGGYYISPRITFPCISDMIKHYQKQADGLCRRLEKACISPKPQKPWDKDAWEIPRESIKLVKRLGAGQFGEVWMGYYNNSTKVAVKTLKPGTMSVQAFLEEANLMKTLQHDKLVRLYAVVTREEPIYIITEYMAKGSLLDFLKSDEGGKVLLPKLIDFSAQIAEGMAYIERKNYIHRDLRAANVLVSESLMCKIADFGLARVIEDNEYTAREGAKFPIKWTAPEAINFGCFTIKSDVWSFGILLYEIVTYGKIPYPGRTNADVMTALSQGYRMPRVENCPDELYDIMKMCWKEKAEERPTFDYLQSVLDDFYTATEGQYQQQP
# Sequence of Vascular endothelial growth factor receptor 2 (P35968 whole entry): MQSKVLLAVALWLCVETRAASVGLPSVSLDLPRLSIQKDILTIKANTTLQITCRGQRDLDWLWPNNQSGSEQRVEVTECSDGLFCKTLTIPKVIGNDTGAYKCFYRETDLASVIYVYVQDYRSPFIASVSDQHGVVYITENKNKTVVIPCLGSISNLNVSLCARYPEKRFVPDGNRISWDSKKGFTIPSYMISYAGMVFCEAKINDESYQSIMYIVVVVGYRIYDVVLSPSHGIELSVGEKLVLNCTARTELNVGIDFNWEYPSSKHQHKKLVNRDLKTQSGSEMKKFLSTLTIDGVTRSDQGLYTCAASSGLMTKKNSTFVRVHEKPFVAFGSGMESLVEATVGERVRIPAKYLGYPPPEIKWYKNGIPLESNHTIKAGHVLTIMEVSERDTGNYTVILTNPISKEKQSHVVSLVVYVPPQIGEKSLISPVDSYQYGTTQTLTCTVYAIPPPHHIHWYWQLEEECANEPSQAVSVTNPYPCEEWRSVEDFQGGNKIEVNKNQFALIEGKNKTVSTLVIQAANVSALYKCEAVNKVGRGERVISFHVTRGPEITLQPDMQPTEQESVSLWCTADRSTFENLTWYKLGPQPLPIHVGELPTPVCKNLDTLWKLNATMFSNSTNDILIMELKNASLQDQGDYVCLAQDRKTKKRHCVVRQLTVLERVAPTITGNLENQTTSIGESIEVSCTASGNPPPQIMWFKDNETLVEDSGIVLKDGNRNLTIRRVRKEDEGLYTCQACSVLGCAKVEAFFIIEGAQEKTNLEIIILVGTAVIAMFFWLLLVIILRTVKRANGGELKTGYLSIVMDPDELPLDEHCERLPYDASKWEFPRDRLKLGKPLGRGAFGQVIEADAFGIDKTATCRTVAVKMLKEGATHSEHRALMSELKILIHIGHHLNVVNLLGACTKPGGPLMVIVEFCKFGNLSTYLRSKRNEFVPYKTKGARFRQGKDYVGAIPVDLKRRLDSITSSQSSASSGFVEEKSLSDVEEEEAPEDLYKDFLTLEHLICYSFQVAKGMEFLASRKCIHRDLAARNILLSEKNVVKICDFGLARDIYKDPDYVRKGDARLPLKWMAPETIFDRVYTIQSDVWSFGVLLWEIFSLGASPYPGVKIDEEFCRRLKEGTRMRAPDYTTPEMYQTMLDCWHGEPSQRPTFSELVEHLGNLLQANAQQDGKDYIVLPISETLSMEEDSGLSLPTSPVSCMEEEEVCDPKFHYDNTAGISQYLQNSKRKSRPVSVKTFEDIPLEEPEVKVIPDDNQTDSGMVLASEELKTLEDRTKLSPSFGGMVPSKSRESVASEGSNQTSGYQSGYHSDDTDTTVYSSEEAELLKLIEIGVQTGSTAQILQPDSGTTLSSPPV
# Sequence of Proto-oncogene tyrosine-protein kinase Src (P12931 2-536 limits assumed): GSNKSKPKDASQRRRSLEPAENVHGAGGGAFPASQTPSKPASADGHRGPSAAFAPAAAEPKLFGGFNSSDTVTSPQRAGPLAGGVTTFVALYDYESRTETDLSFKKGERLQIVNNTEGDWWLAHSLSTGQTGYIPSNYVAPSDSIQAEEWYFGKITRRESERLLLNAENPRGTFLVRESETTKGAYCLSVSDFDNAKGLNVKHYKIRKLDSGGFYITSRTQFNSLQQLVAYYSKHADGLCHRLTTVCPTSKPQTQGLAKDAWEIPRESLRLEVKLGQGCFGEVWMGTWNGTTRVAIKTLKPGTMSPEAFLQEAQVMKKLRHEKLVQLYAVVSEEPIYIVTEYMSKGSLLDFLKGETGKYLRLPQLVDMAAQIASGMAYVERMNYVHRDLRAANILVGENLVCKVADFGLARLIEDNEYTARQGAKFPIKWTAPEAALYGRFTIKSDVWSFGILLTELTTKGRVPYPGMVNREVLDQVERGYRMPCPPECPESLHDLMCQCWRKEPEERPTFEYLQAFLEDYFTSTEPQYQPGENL
compound,measurement,setting,value
Cc1ccc(C(=O)Nc2ccc3c(c2)C(F)(F)C[C@@H]3N2CCN(C)CC2)cc1C#Cc1cnc2cccnn12,IC50,[1],11100 nM
same,Activity,[2],Non-Toxic
same,Activity,[3],Non-Toxic
same,Activity,[4],Non-Toxic
same,Activity,[5],Non-Toxic
same,Activity,[6],Non-Toxic
same,MTD at 336 h,[7],100 mg/kg
same,Tmax,[8],5 h
same,Tmax,[9],4.8 min
same,Cmax,[10],129 ng/mL
same,Cmax,[11],1470 ng/mL
same,AUC(0-t) at 24 h,[12],1390 ng·h/mL
same,AUC(0-t) at 24 h,[13],1390 ng·h/mL
same,AUC(0-inf),[14],1440 ng·h/mL
same,AUC(0-inf),[15],1500 ng·h/mL
same,MRT,[16],8.22 h
same,MRT,[17],5.11 h
same,half-life,[18],4.61 h
same,half-life,[19],5.3 h
same,clearance,[20],62 mL/min/kg
same,Vd,[21],18.1 L/kg
same,bioavailability,[22],32%
same,IC50,[23],< 10 nM
same,IC50,[24],< 10 nM
same,IC50,[25],< 10 nM
same,IC50,[26],< 10 nM
same,IC50,[27],< 10 nM
same,Activity,[28],Non-Toxic
